Experimental data reported in ChEMBL document CHEMBL1201862, “PubChem BioAssay data set” (2004).
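Cultured in 96-well plates, cells were exposed to test compound for 48 hours across five concentrations. GI50: concentration for 50% inhibition of growth.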 Calls of active or inactive are those of the source. No stated cut-off is given here; in the data, active = GI50 up to about 1.1 µM and inactive = higher.

Experiments:
Experiment in all cases: NCI anticancer screen, dose series, 48 h
BT-549 = test system: BT-549
MCF7 = test system: MCF7
XF498 = test system: XF498
DMS-114 = test system: DMS-114
DLD-1 = test system: DLD-1
M19-MEL = test system: M19-MEL

Structure (SMILES) | GI50 (BT-549) | GI50 (MCF7) | other results
NS(=O)(=O)c1nnc(NC(=O)C23CC4CC(CC(C4)C2)C3)s1 | 82.2 µM (inactive) | > 100 µM (inactive) | –
S=C(Nc1ccc2cn[nH]c2c1)Nc1ccc2cn[nH]c2c1 | 27.6 µM (inactive) | 82 µM (inactive) | –
CSc1nc2cc(S(=O)(=O)N3CCCCC3)ccc2s1 | > 100 µM (inactive) | > 100 µM (inactive) | –
CC(C)(CO[C@H]1C[C@H]2CC[C@@]1(C)C2(C)C)[N+](=O)[O-] | 21.5 µM (inactive) | 22.9 µM (inactive) | –
Clc1ccccc1C(Nc1ncccn1)Nc1ncccn1 | > 100 µM (inactive) | > 100 µM (inactive) | –
COc1ccc(CCN2C(=O)C=CC2=O)cc1OC | 17.5 µM (inactive) | 17.3 µM (inactive) | –
C[C@]12CC[C@H]3[C@@H](CCC4=C(Br)C(=O)C=C[C@@]43O)[C@@H]1CCC2=O | 20.7 µM (inactive) | 38.9 µM (inactive) | –
CCOC(=O)NNC(=O)NCCNC(=O)NNC(=O)OCC | > 100 µM (inactive) | > 100 µM (inactive) | –
CC(=O)O[C@H]1C(=O)[C@]2(C)[C@@H](OC(=O)OCCC(O)CO)C[C@H]3OC[C@@]3(OC(C)=O)[C@H]2[C@H](OC(=O)c2ccccc2)[C@]2(O)C[C@H](OC(=O)[C@H](O)[C@@H](NC(=O)c3ccccc3)c3ccccc3)C(C)=C1C2(C)C (stereo not given in full) | 0.0667 µM (active) | < 0.01 µM (active) | –
Cc1cc2c(cc1C)C(=O)C1(C2)Cc2c(C)ccc(C)c2C1=O (stereo not given) | > 100 µM (inactive) | > 100 µM (inactive) | –
O/N=C1\Nc2ccccc2OCc2cc(Br)c(Br)cc2COc2ccccc2N\C1=N/O | 15.1 µM (inactive) | 6.81 µM (inactive) | –
COC(=O)c1c2c(cc3c1CC1(Cc4cc5c(c(C=O)c4C1)CCC5)C3)CCC2 (stereo not given) | – | 42 µM (inactive) | –
COC(=O)C1=C(OC(=O)/C=C/c2ccc(Cl)cc2)C(C(=O)OC)[C@]2(O)[C@@H](C(=O)OC)[C@H]1C[C@@H](c1ccccc1)[C@@H]2C(=O)OC (stereo not given in full) | 6.55 µM (inactive) | – | –
COC(=O)C1Cc2cc3c(cc2C1)CCC3 | > 100 µM (inactive) | > 100 µM (inactive) | –
O=c1cnn(C2OC(CO)C(O)C(F)C2O)c(=O)[nH]1 (stereo not given) | > 100 µM (inactive) | > 100 µM (inactive) | –
CN(C)CCCNC(=O)c1cc(NC(=O)c2cc(NS(=O)(=O)c3ccc4c(c3)C(=O)c3ccccc3C4=O)cn2C)cn1C | 52.7 µM (inactive) | 31.8 µM (inactive) | –
C[N+]1(C(CO)Cc2c[nH]c3ccccc23)Cc2ccccc2C1 (stereo not given) | 77.6 µM (inactive) | > 100 µM (inactive) | –
C[N+]12C=CC=C1C(N1CCCC1)c1sc(-c3ccc(Cl)cc3)cc12 (stereo not given) | 10.3 µM (inactive) | 14.7 µM (inactive) | –
O=[N+]([O-])c1cc(C2ON=C(c3ccccc3)N2C23CC4CC(CC(C4)C2)C3)ccc1Cl (stereo not given) | – | 2.74 µM (inactive) | –
O=C1/C(=C/c2ccccc2)CCc2ccc([N+](=O)[O-])cc21 | 31.3 µM (inactive) | 4.17 µM (inactive) | –
O=C(N/N=C(COc1cccc(Cl)c1)\N=C\c1ccncc1)c1ccncc1 | > 100 µM (inactive) | > 100 µM (inactive) | –
CC(=O)/C(=C\c1ccc(Cl)c(Cl)c1)C(=O)C(C)CN(C)C (stereo not given) | 2.26 µM (inactive) | 3.61 µM (inactive) | –
CC1CC(NN)=Nc2ccccc2N1 (stereo not given) | > 100 µM (inactive) | – | –
CNC(=O)CCC(NC(=O)OC(C)(C)C)C(=O)NC(Cc1ccc(NC(=O)CCCCC(C)=O)cc1)C(=O)NCC(=O)NC (stereo not given) | > 100 µM (inactive) | > 100 µM (inactive) | –
Cc1nc(Nc2ccc(Cl)cc2Cl)sc1C(=O)Nc1ccccc1 | – | 36 µM (inactive) | –
COC1=C(OC)C(=O)C(Cc2c(-c3ccccc3)nc3sc(Cl)cn23)=C(C)C1=O | 15.7 µM (inactive) | 20.3 µM (inactive) | –
Cc1nc2ccc(F)cc2c2c1CCN2c1ccccc1 | 23.4 µM (inactive) | 28.1 µM (inactive) | –

Structure (SMILES) | GI50 (BT-549) | GI50 (MCF7) | other results
CC(=O)OCC12C(=O)C[C@@H](C)C3(CC(c4ccoc4)OC3=O)C1CCC(OC(C)=O)C21CO1 (stereo not given in full) | > 100 µM (inactive) | > 100 µM (inactive) | –
CC(=O)C(C(C)=O)=C1CCCC(O)O1 (stereo not given) | – | > 100 µM (inactive) | –
O=C1c2ccccc2C(=O)c2c1c1cc(O)ccc1n2Cc1ccc(Cl)cc1Cl | 18.5 µM (inactive) | 4.11 µM (inactive) | –
CCC1(CC)C(=O)OC(=O)C1(CC)CC | > 100 µM (inactive) | – | –
O=S(=O)(O)C(CO)c1ccccc1.O=S(=O)(O)Cc1ccccc1 (stereo not given) | > 100 µM (inactive) | > 100 µM (inactive) | –
CC1CC(C(=O)OC2OC(COC3OC(CO)C(OC4OC(C)C(O)C(O)C4O)C(O)C3O)C(O)C(O)C2O)C2CCC3(C)C(=CCC4(C)C3CCC3C(C)(CO)C(O)C(O)CC34C)C2C1C (stereo not given) | 17.7 µM (inactive) | 23.7 µM (inactive) | –
CCOC(=O)C1(C#N)C(C#N)(C#N)C1(C#N)C#N | > 100 µM (inactive) | > 100 µM (inactive) | –
CC1=NNC(=O)C1C1CC(c2c[nH]c3ccccc23)=NNC1=S (stereo not given) | 50.2 µM (inactive) | – | –
CC1(C)[C@@H](Cn2cnc3c(N)ncnc32)CC[C@@]1(C)CO | > 100 µM (inactive) | 74.1 µM (inactive) | –
Cc1ccc(/C(=C\C(=O)C(=O)NC23CC4CC(CC(C4)C2)C3)Sc2ccccc2)cc1 | – | > 10 µM (inactive) | –
CN1CCC2(CC1)/C(=N/C1CCCCC1)NC(=S)N2c1ccccc1 | – | > 100 µM (inactive) | –
C[C@H]1CC(=O)C[C@@H]2CC[C@@H]3[C@H](CC[C@]4(C)C(OC(=O)c5cccc6c(=O)c7ccccc7[nH]c56)CC[C@@H]34)[C@]21C (stereo not given in full) | 26.7 µM (inactive) | 62.5 µM (inactive) | –
COc1c(C)cc2c(c1O)C1C3[C@H]4SC[C@@]5(NCCC6=C5NC5C=CC=CC65)C(=O)OCC(c5c6c(c(C)c(OC(C)=O)c54)OCO6)N3[C@@H](O)C(C2)N1C (stereo not given in full) | – | – | GI50 (XF498): < 0.01 µM (active); GI50 (DMS-114): < 0.01 µM (active); GI50 (DLD-1): < 0.01 µM (active); GI50 (M19-MEL): < 0.01 µM (active)
O=S1(=O)N=C(SCc2c[nH]c3ccccc23)N(c2ccccc2)c2ccncc21 | 59 µM (inactive) | 42.5 µM (inactive) | –
CCn1c(=O)c2c3cc(OC(C)=O)ccc3oc2c2ccc(OC(C)=O)cc21 | 30.5 µM (inactive) | 35 µM (inactive) | –
COC(=O)c1c2c(cc3c1CC1(Cc4cc5c(c(C(C)=O)c4C1)CCCC5)C3)CCCC2 (stereo not given) | – | 85.1 µM (inactive) | –
C[C@]12CCC3c4ccc(O)cc4CC[C@H]3C1CC(=O)N(CCN1CCCC1)C2=O (stereo not given in full) | > 10 µM (inactive) | > 10 µM (inactive) | –
CC(C)Cc1c(C#N)c(C#N)c(N)n1Cc1ccccc1 | > 100 µM (inactive) | > 100 µM (inactive) | –
COc1cccc2c(NNc3ccc(Cl)cc3)c3ccc([N+](=O)[O-])cc3nc12 | 14 µM (inactive) | 19.2 µM (inactive) | –
Cc1cc(C)c(C(=O)c2nnc3ccccc3c2N)c(C)c1 | 63.1 µM (inactive) | – | –
CC(C)CC(=O)NC(Nc1ccc(S(=O)(=O)Nc2ncccn2)cc1)(C(F)(F)F)C(F)(F)F | > 100 µM (inactive) | – | –
OC(C#CCN1CCCC1)(c1ccccc1)c1ccccc1Cl (stereo not given) | 46.2 µM (inactive) | 17.9 µM (inactive) | –
c1ccc(/N=C2\c3ccccc3CN2c2ccccc2)cc1 | > 100 µM (inactive) | > 100 µM (inactive) | –
CCC[C@H](O)[C@@H](CNc1cc(NC(C)=O)nc(NC(C)=O)n1)N(Cc1ccccc1)Cc1ccccc1 | 16.1 µM (inactive) | 8.79 µM (inactive) | –
CCCCCCCCCC(=O)NC(Cc1ccc(O)cc1)C(=O)NCCCNCCCCNCCCNC(=O)[C@@H](N)CCCN=C(N)N (stereo not given in full) | – | – | GI50 (XF498): > 100 µM (inactive); GI50 (DMS-114): 61.8 µM (inactive); GI50 (M19-MEL): 50.2 µM (inactive)
O=S(=O)(N/C(=N\O)Nc1ccc(Cl)cc1)c1cc2ccccc2o1 | 17.9 µM (inactive) | – | –
